From patent US9409907B2, “Inhibitor compounds” (Cancer Research Technology Limited, priority 2012, dated 2016)
pIC50: −log10 of the molar value.

biological target: full length MPS1 (Homo sapiens (Human), UniProt P33981); experiment: Measurement of inhibition of MPS1 kinase (Caliper EZ reader mobility-shift enzyme assay); format: biochemical; conditions: full length MPS1 12.5 nM or 3 nM, H236 peptide 5 μM, ATP 10 μM, 60 min at room temperature
Description: Measurement of Inhibition of MPS1 Kinase
The reaction was carried out for 60 min at room temperature and stopped by the addition of buffer (10 μl) containing 20 mM EDTA, 0.05% (v/v) Brij-35, in 0.1M HEPES-buffered saline (Free acid, Sigma, UK). The plate was read on a Caliper EZ reader II (Caliper Life Sciences).
The % inhibition of the compounds is calculated relative to the means of selected control wells.

full length MPS1, sequence (P33981 whole entry): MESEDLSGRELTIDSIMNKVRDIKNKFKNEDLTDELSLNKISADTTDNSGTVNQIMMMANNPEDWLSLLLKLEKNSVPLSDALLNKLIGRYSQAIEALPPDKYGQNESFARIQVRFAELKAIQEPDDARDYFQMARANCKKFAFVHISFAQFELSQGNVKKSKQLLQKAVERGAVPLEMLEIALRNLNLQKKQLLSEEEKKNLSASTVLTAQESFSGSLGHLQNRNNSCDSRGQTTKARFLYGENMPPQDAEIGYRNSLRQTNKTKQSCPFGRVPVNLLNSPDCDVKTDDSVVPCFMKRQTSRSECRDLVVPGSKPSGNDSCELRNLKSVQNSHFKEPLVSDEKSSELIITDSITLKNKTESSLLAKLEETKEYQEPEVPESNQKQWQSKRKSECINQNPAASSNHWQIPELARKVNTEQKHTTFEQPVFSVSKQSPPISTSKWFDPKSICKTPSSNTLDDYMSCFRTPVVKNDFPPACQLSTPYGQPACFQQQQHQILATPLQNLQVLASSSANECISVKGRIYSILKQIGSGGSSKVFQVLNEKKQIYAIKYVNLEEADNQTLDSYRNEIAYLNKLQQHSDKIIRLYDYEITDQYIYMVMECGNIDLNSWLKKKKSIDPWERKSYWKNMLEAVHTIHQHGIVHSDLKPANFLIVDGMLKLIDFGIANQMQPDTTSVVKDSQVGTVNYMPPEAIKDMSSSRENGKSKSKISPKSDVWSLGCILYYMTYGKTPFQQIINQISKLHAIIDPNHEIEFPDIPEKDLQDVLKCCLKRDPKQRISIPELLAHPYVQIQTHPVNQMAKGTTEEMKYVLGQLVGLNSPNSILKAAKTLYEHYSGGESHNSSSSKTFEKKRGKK

| pIC50 | Structure (SMILES) |
| --- | --- |
| 7.32 | Cn1cc(-c2ccc(Nc3ncc4ccnc(NCC(C)(C)C)c4n3)c(OC(F)(F)F)c2)cn1 [Example 169, N2-(4-(1-methyl-1H-pyrazol-4-yl)-2-(trifluoromethoxy)phenyl)-N8-neopentylpyrido[3,4-d]pyrimidine-2,8-diamine] |
| 7.57 | CCc1cc(-c2cnn(C)c2)ccc1Nc1ncc2ccnc(NCC(C)(C)C)c2n1 [Example 168, N2-(2-ethyl-4-(1-methyl-1H-pyrazol-4-yl)phenyl)-N8-neopentylpyrido[3,4-d]pyrimidine-2,8-diamine] |
| 7.77 | CNc1nccc2cnc(Nc3ccc(-c4cnn(C)c4)cc3OC)nc12 [Example 110, N^2-(2-methoxy-4-(1-methyl-1H-pyrazol-4-yl)phenyl)-N^8-methylpyrido[3,4-d]pyrimidine-2,8-diamine] |
| 8.10 | COc1cc(-c2cnn(C)c2)ccc1Nc1ncc2ccnc(NCC3CCO3)c2n1 (stereo not shown) [Example 116, N^2-(2-methoxy-4-(1-methyl-1H-pyrazol-4-yl)phenyl)-N8-(oxetan-2-ylmethyl)pyrido[3,4-d]pyrimidine-2,8-diamine] |
| 8.70 | COc1cc(-c2cncn2C)ccc1Nc1ncc2ccnc(NCC(C)(C)C)c2n1 [Example 47, N2-(2-methoxy-4-(1-methyl-1H-imidazol-5-yl)phenyl)-N8-neopentylpyrido[3,4-d]pyrimidine-2,8-diamine] |

More lines, now with the values behind:

| Structure (SMILES) | pIC50 |
| --- | --- |
| CC(C)(C)CNc1nccc2cnc(Nc3ccc(N4CCOCC4)cc3Cl)nc12 [Example 174, N2-(2-chloro-4-morpholinophenyl)-N8-neopentylpyrido[3,4-d]pyrimidine-2,8-diamine] | 8.00 |
| Clc1ccc(Nc2ncc3ccnc(N4CCC5(COC5)C4)c3n2)c(Cl)c1 [Example 207] | 7.03 |
| Cc1ncc(-c2ccc(Nc3cc4c(-c5cnn(C)c5)cccc4cn3)c(Cl)c2)n1C [Example 11, N-(2-chloro-4-(1,2-dimethyl-1H-imidazol-5-yl)phenyl)-5-(1-methyl-1H-pyrazol-4-yl)isoquinolin-3-amine] | 8.22 |
| COc1cc(-c2cnn(C)c2)ccc1Nc1ncc2ccnc(NC(C)C3CCOC3)c2n1 (racemic) [Example 125, Racemic N^2-(2-methoxy-4-(1-methyl-1H-pyrazol-4-yl)phenyl)-N^8-(1-(tetrahydrofuran-3-yl)ethyl)pyrido[3,4-d]pyrimidine-2,8-diamine] | 8.52 |
| COc1cc(C(=O)N2CC(OC)C2)ccc1Nc1cc2c(-c3cn(C)nc3C)cccc2cn1 [Example 8, (4-((5-(1,3-dimethyl-1H-pyrazol-4-yl)isoquinolin-3-yl)amino)-3-methoxyphenyl)(3-methoxyazetidin-1-yl)methanone] | 7.57 |
| COc1cc(N2CCCCC2)ccc1Nc1ncc2ccnc(NCC(C)(C)C)c2n1 [Example 171, N2-(2-methoxy-4-(piperidin-1-yl)phenyl)-N8-neopentylpyrido[3,4-d]pyrimidine-2,8-diamine] | 7.19 |
| COc1cc(C#N)ccc1Nc1ncc2ccnc(N3CCC4(COC4)C3)c2n1 [Example 206] | 7.77 |
| COc1cc(-c2cnn(C)c2)ccc1Nc1ncc2ccnc(NC(CO)CO)c2n1 [Example 130, 2-(2-(2-Methoxy-4-(1-methyl-1H-pyrazol-4-yl)phenylamino)pyrido[3,4-d]pyrimidin-8-ylamino)propane-1,3-diol] | 8.40 |
| COc1cc(-c2cnn(C)c2)ccc1Nc1ncc2ccnc(N3CCC(C#N)CC3)c2n1 [Example 140, 1-(2-(2-Methoxy-4-(1-methyl-1H-pyrazol-4-yl)phenylamino)pyrido[3,4-d]pyrimidin-8yl)piperidine-4-carbonitrile] | 8.40 |
| COc1cc(-c2cnn(CCO)c2)ccc1Nc1ncc2ccnc(NC3CCCCC3)c2n1 [Example 43, 2-(4-(4-((8-(cyclohexylamino)pyrido[3,4-d]pyrimidin-2-yl)amino)-3-methoxyphenyl)-1H-pyrazol-1-yl)ethanol] | 7.85 |
| COc1nc(S(C)(=O)=O)ccc1Nc1ncc2ccnc(NCC(C)(C)C)c2n1 [Example 46, N2-(2-methoxy-6-(methylsulfonyl)pyridin-3-yl)-N8-neopentylpyrido[3,4-d]pyrimidine-2,8-diamine] | 7.77 |
